Assay results taken from ChEMBL document CHEMBL2440076, “New triarylpyrazoles as broad-spectrum anticancer agents: design, synthesis, and biological evaluation” (Eur J Med Chem, 2013).

How the values were obtained:
Assay type in all cases: functional
SF-268 = assay: Growth inhibition of human SF268 cells assessed as cell growth at 5X10'-9 M after 48 hrs by sulforhodamine B assay; conditions: SF-268, 48 h, read-out: Activity
KM12 [1] = assay: Growth inhibition of human KM12 cells assessed as cell growth at 5X10'-5 M after 48 hrs by sulforhodamine B assay; conditions: KM12, 48 h, read-out: Activity
HCT-116 = assay: Growth inhibition of human HCT116 cells assessed as cell growth at 5X10'-5 M after 48 hrs by sulforhodamine B assay; conditions: HCT-116, 48 h, read-out: Activity
NCI-H23 = assay: Growth inhibition of human NCI-H23 cells assessed as cell growth at 5X10'-5 M after 48 hrs by sulforhodamine B assay; conditions: NCI-H23, 48 h, read-out: Activity
MDA-MB-468 = assay: Growth inhibition of human MDA-MB-468 cells assessed as cell growth at 5X10'-6 M after 48 hrs by sulforhodamine B assay; conditions: MDA-MB-468, 48 h, read-out: Activity
PC-3 = assay: Growth inhibition of human PC3 cells assessed as cell growth at 5X10'-6 M after 48 hrs by sulforhodamine B assay; conditions: PC-3, 48 h, read-out: Activity
ACHN [2] = assay: Growth inhibition of human ACHN cells assessed as cell growth at 5X10'-6 M after 48 hrs by sulforhodamine B assay; conditions: read-out: Activity
MDA-MB-435 = assay: Growth inhibition of human MDA-MB-435 cells assessed as cell growth at 5X10'-6 M after 48 hrs by sulforhodamine B assay; conditions: MDA-MB-435, 48 h, read-out: Activity
NCI-H322M [3] = assay: Growth inhibition of human NCI-H322M cells assessed as cell growth at 5X10'-9 M after 48 hrs by sulforhodamine B assay; conditions: read-out: Activity
NCI-H522 = assay: Growth inhibition of human NCI-H522 cells assessed as cell growth at 5X10'-6 M after 48 hrs by sulforhodamine B assay; conditions: NCI-H522, 48 h, read-out: Activity
HOP-92 = assay: Growth inhibition of human HOP92 cells assessed as cell growth at 5X10'-6 M after 48 hrs by sulforhodamine B assay; conditions: HOP-92, 48 h, read-out: Activity
RXF 393 = assay: Growth inhibition of human RXF393 cells assessed as cell growth at 5X10'-7 M after 48 hrs by sulforhodamine B assay; conditions: RXF 393, 48 h, read-out: Activity
A498 [4] = assay: Growth inhibition of human A498 cells assessed as cell growth at 5X10'-7 M after 48 hrs by sulforhodamine B assay; conditions: A498, 48 h, read-out: Activity
M14 = assay: Growth inhibition of human M14 cells assessed as cell growth at 5X10'-7 M after 48 hrs by sulforhodamine B assay; conditions: M14, 48 h, read-out: Activity
Malme-3M = assay: Growth inhibition of human MALME-3M cells assessed as cell growth at 5X10'-7 M after 48 hrs by sulforhodamine B assay; conditions: read-out: Activity
HT-29 = assay: Growth inhibition of human HT-29 cells assessed as cell growth at 5X10'-7 M after 48 hrs by sulforhodamine B assay; conditions: HT-29, 48 h, read-out: Activity
NCI-H460 = assay: Growth inhibition of human NCI-H460 cells assessed as cell growth at 5X10'-7 M after 48 hrs by sulforhodamine B assay; conditions: NCI-H460, 48 h, read-out: Activity
NCI-H322M [5] = assay: Growth inhibition of human NCI-H322M cells assessed as cell growth at 5X10'-7 M after 48 hrs by sulforhodamine B assay; conditions: read-out: Activity
SR = assay: Growth inhibition of human SR cells assessed as cell growth at 5X10'-7 M after 48 hrs by sulforhodamine B assay; conditions: read-out: Activity
CCRF-CEM = assay: Growth inhibition of human CCRF-CEM cells assessed as cell growth at 5X10'-7 M after 48 hrs by sulforhodamine B assay; conditions: read-out: Activity
MDA-MB-231 [6] = assay: Growth inhibition of human MDA-MB-231 cells assessed as cell growth at 5X10'-8 M after 48 hrs by sulforhodamine B assay; conditions: MDA-MB-231, 48 h, read-out: Activity
OVCAR-4 = assay: Growth inhibition of human OVCAR4 cells assessed as cell growth at 5X10'-8 M after 48 hrs by sulforhodamine B assay; conditions: OVCAR-4, 48 h, read-out: Activity
KM12 [7] = assay: Growth inhibition of human KM12 cells assessed as cell growth at 5X10'-8 M after 48 hrs by sulforhodamine B assay; conditions: KM12, 48 h, read-out: Activity
T47D = assay: Growth inhibition of human T47D cells assessed as cell growth at 5X10'-5 M after 48 hrs by sulforhodamine B assay; conditions: read-out: Activity
MDA-MB-231 [8] = assay: Growth inhibition of human MDA-MB-231 cells assessed as cell growth at 5X10'-5 M after 48 hrs by sulforhodamine B assay; conditions: MDA-MB-231, 48 h, read-out: Activity
DU-145 = assay: Growth inhibition of human DU145 cells assessed as cell growth at 5X10'-5 M after 48 hrs by sulforhodamine B assay; conditions: DU-145, 48 h, read-out: Activity
CAKI-1 [9] = assay: Growth inhibition of human CAKI-1 cells assessed as cell growth at 5X10'-5 M after 48 hrs by sulforhodamine B assay; conditions: CAKI-1, 48 h, read-out: Activity
ACHN [10] = assay: Growth inhibition of human ACHN cells assessed as cell growth at 5X10'-5 M after 48 hrs by sulforhodamine B assay; conditions: read-out: Activity
A498 [11] = assay: Growth inhibition of human A498 cells assessed as cell growth at 5X10'-5 M after 48 hrs by sulforhodamine B assay; conditions: A498, 48 h, read-out: Activity
786-0 = assay: Growth inhibition of human 786-0 cells assessed as cell growth at 5X10'-5 M after 48 hrs by sulforhodamine B assay; conditions: 786-0, 48 h, read-out: Activity
SK-MEL-5 = assay: Growth inhibition of human SK-MEL-5 cells assessed as cell growth at 5X10'-5 M after 48 hrs by sulforhodamine B assay; conditions: SK-MEL-5, 48 h, read-out: Activity
MDA-MB-231 [12] = assay: Growth inhibition of human MDA-MB-231 cells assessed as cell growth at 5X10'-9 M after 48 hrs by sulforhodamine B assay; conditions: MDA-MB-231, 48 h, read-out: Activity
UO-31 = assay: Growth inhibition of human UO31 cells assessed as cell growth at 5X10'-9 M after 48 hrs by sulforhodamine B assay; conditions: UO-31, 48 h, read-out: Activity
CAKI-1 [13] = assay: Growth inhibition of human CAKI-1 cells assessed as cell growth at 5X10'-9 M after 48 hrs by sulforhodamine B assay; conditions: CAKI-1, 48 h, read-out: Activity
UACC-62 = assay: Growth inhibition of human UACC62 cells assessed as cell growth at 5X10'-9 M after 48 hrs by sulforhodamine B assay; conditions: UACC-62, 48 h, read-out: Activity
SNB-75 = assay: Growth inhibition of human SNB75 cells assessed as cell growth at 5X10'-9 M after 48 hrs by sulforhodamine B assay; conditions: SNB-75, 48 h, read-out: Activity
SF-295 = assay: Growth inhibition of human SF295 cells assessed as cell growth at 5X10'-9 M after 48 hrs by sulforhodamine B assay; conditions: SF-295, 48 h, read-out: Activity

In the case of COc1cc(-c2nn(-c3cccc(NC(=O)Nc4ccc(Cl)c(Cl)c4)c3)cc2-c2ccncc2)ccc1Cl, the growth at 0.005 µM (SF-268) is reported as 100%, the growth at 50 µM (KM12 [1]) is reported as -50% and the growth at 50 µM (HCT-116) is reported as 2%. The growth at 50 µM (NCI-H23) was -9%, the growth at 5 µM (MDA-MB-468) was -29% and the growth at 5 µM (PC-3) was -17%. It also gave a growth at 5 µM (ACHN [2]) of 3%, a growth at 5 µM (MDA-MB-435) of -39% and a growth at 0.005 µM (NCI-H322M [3]) of 104%. It also gave a growth at 5 µM (NCI-H522) of -18%, a growth at 5 µM (HOP-92) of -40% and a growth at 0.5 µM (RXF 393) of 76%. For the same compound, the growth at 0.5 µM (A498 [4]) was 80%, the growth at 0.5 µM (M14) was 78% and the growth at 0.5 µM (Malme-3M) was 82%. For the same compound, the growth at 0.5 µM (HT-29) was 81%, the growth at 0.5 µM (NCI-H460) was 74% and the growth at 0.5 µM (NCI-H322M [5]) was 89%. The growth at 0.5 µM (SR) was 78%, the growth at 0.5 µM (CCRF-CEM) was 74% and the growth at 0.05 µM (MDA-MB-231 [6]) was 89%. It also gave a growth at 0.05 µM (OVCAR-4) of 94%, a growth at 0.05 µM (KM12 [7]) of 104% and a growth at 50 µM (T47D) of 9%. It also gave a growth at 50 µM (MDA-MB-231 [8]) of -54%, a growth at 50 µM (DU-145) of -1% and a growth at 50 µM (CAKI-1 [9]) of -13%. For the same compound, the growth at 50 µM (ACHN [10]) was 5%, the growth at 50 µM (A498 [11]) was -11% and the growth at 50 µM (786-0) was -20%. The growth at 50 µM (SK-MEL-5) was -90%, the growth at 0.005 µM (MDA-MB-231 [12]) was 92% and the growth at 0.005 µM (UO-31) was 88%. It also gave a growth at 0.005 µM (CAKI-1 [13]) of 97%, a growth at 0.005 µM (UACC-62) of 98% and a growth at 0.005 µM (SNB-75) of 86%. It also gave a growth at 0.005 µM (SF-295) of 93%.
